Source: patent publication US20240345105A1, “Compositions and Methods for Detecting Analytes in Oral Fluids” (George Mason Research Foundation, Inc., priority 2023, published 2024)

Assay: LC/MRM-MS quantification of THC in oral fluid with heavy isotope standard curve
Format: in vivo
Details: oral fluid of cannabis smoking volunteer, ratio to heavy THC isotope
Description: Samples containing drugs of interest are processed and run on the Thermo Quantum Triple Quad MS (LC/MRM MS) in triplicate. Reference Stable heavy isotope analogs are spiked into known drug free OF to determine the sensitivity limit of detection. A standard curve is generated by mixing a known amount of reference heavy isotope analogs with varying amounts of the natural drug, plotting the ratio of the concentration of natural drug to that of the heavy standard isotope analog. The reference heavy isotope analogs are spiked into suspected positive OF sample. The ratio of […] is calculated and fitted to the standard curve to calculate the natural drugs concentration.
The present disclosure provides an exemplary oral fluid sample processing protocol. […]

**Q.** With `CCCCCc1cc(O)c2c(c1)OC(C)(C)[C@@H]1CCC(C)=C[C@@H]21` [THC, (6aR,10aR)-6,6,9-trimethyl-3-pentyl-6a, 7,8,10a-tetrahydro-6H-benzo[c]chromen-1-ol] as the compound, how does the “concentration of THC in saliva” value read?
**A.** The value was 8.615 ng/mL.
